Laboratory results reported in Sander's compilation of Henry's law constants (doi:10.1021/jf60162a025).

Assay: Henry solubility constant Hcp at 298.15 K (mol/(m3 Pa))
Settings: reference: Buttery et al. (1969)

Point of comparison: `CCCCCCO` [1-hexanol], “Henry solubility constant Hcp” value 0.58. Against it:
- CCCCCCCC(C)=O [2-nonanone] — lower, 0.027
- CCCCC(=O)OC [methyl pentanoate] — lower, 0.031
- CCCC(C)=O [2-pentanone] — lower, 0.16
- CCCCCCC(C)=O [2-octanone] — lower, 0.052
- CCCC(=O)OC [methyl butanoate] — lower, 0.048
- CCCCCCCCC=O [nonanal] — lower, 0.013
- CCC(=O)OC [methyl propanoate] — lower, 0.057
- CCCCCCCC(=O)OC [methyl octanoate] — lower, 0.013
- CCCCCCCC=O [octanal] — lower, 0.019
- CCCCCCC=O [heptanal] — lower, 0.037
- CCCC=O [butanal] — lower, 0.086
- COC(C)=O [methyl ethanoate] — lower, 0.086
- CC(C)=O [propanone] — lower, 0.25
- CCCCCCCCO [1-octanol] — lower, 0.4
- CCCCCC(C)=O [2-heptanone] — lower, 0.068
- CCCCCC(=O)OC [methyl hexanoate] — lower, 0.027
- CCCCC=O [pentanal] — lower, 0.067
- CCCCCCCCCC(C)=O [2-undecanone] — lower, 0.016
